This note sets out measurements from ChEMBL document CHEMBL1201862, “PubChem BioAssay data set” (2004).

Structures are written as SMILES.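 How tested: cells in 96-well plates exposed to compound for 48 hours at five concentrations. GI50 marks 50% less growth.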 Activity calls are given as the source filed them. Cut-off read from the data, not from the text of the source: active = GI50 up to about 1.1 µM and inactive = higher. Where only a bound is given, the exact number is not on record here.

Some test systems named below: BT-549; SK-MEL-5; Malme-3M; CAKI-1; OVCAR-5; SR; MDA-N; MDA-MB-435; LOX IMVI; HL-60; EKVX; A498; NCI-H460; HT-29; A549; HCC 2998; KM12; HOP-62; ACHN; NCI-H522.
Common to all, as to test: growth of human tumour cells (NCI), 48 h

Regarding `CC(/C=C/c1ccc([N+](=O)[O-])o1)=N/N1CC(CN2CCOCC2)OC1=O` (centres undefined), the GI50 in the assay on BT-549 is 6.58 µM (inactive); in the assay on SK-MEL-5, 14.7 µM (inactive); in the assay with Malme-3M it was 14.7 µM (inactive); in the assay with CAKI-1, 19.4 µM (inactive); with OVCAR-5, 47.3 µM (inactive); in the assay with SR, 15.6 µM (inactive). The GI50 in the assay on MDA-N was 18.6 µM (inactive); with MDA-MB-435, 18.7 µM (inactive); with LOX IMVI, 24.9 µM (inactive); in the assay with HL-60, 25.3 µM (inactive); in the assay on EKVX, 30.9 µM (inactive); with A498, 32.6 µM (inactive). Besides, the GI50 in the assay with NCI-H460 was 21.5 µM (inactive); in the assay on HT-29, 31.4 µM (inactive); in the assay with A549, 26.8 µM (inactive); with HCC 2998, 28.9 µM (inactive); with KM12 it was 42.8 µM (inactive); in the assay with HOP-62, 26.9 µM (inactive). For the same compound, the GI50 in the assay with ACHN is 16.6 µM (inactive).
On to `CCc1nc(N)nc(N)c1-c1ccc(Cl)c(/N=N/N(C)C)c1`, for which the GI50 was 30.1 µM (inactive) with BT-549; 20.7 µM (inactive) in the assay on SK-MEL-5; 27.7 µM (inactive) in the assay with NCI-H522; 36.1 µM (inactive) with CAKI-1; > 82 µM (inactive) in the assay on OVCAR-5; 19.1 µM (inactive) with SR. For the same compound, the GI50 in the assay with MDA-N was 36 µM (inactive); in the assay on MDA-MB-435, 27.9 µM (inactive); in the assay with LOX IMVI, 24.5 µM (inactive); with HL-60 it was 20.8 µM (inactive); in the assay with EKVX it was 32.7 µM (inactive); with A498, 52 µM (inactive). In addition, the GI50 was 6.59 µM (inactive) in the assay with NCI-H460; 18.7 µM (inactive) with HT-29; 17.2 µM (inactive) with A549; 23.7 µM (inactive) in the assay with HCC 2998; 28.4 µM (inactive) with KM12; 23.2 µM (inactive) in the assay on HOP-62. Moreover, the GI50 in the assay with ACHN is 28.6 µM (inactive).
In the case of `O=S(=O)(c1ccccc1)C1(CCC2OCCO2)C=CC2(CC1)OCCO2` (centres undefined), the GI50 in the assay with BT-549, in the assay on SK-MEL-5, with Malme-3M, in the assay on OVCAR-5, in the assay on SR and in the assay with MDA-N was > 100 µM (inactive) throughout. Moreover, the GI50 in the assay on MDA-MB-435, in the assay with HL-60, in the assay on EKVX, in the assay on A498, in the assay on NCI-H460 and with HT-29 was > 100 µM (inactive) each time. In addition, the GI50 in the assay on A549, in the assay on HCC 2998, with HOP-62 and in the assay on ACHN was > 100 µM (inactive) throughout.
`O=C1c2ccccc2C2(c3ccc(Cl)cc3)NCc3ccccc3CN12` (centres undefined): the GI50 was 43.1 µM (inactive) in the assay with BT-549; 16 µM (inactive) with SK-MEL-5; 63 µM (inactive) in the assay with CAKI-1; 21.7 µM (inactive) in the assay with OVCAR-5; 24.7 µM (inactive) in the assay on SR; 56 µM (inactive) in the assay with MDA-N. In addition, the GI50 in the assay on MDA-MB-435 was 26.7 µM (inactive); in the assay with LOX IMVI, 16.2 µM (inactive); in the assay with HL-60 it was 14 µM (inactive); with EKVX it was 20.6 µM (inactive); in the assay on A498 it was 19.4 µM (inactive); in the assay on NCI-H460, 27.9 µM (inactive). For the same compound, the GI50 is 15.2 µM (inactive) in the assay on HT-29; 18.5 µM (inactive) in the assay on A549; 20.4 µM (inactive) with HCC 2998; 21.9 µM (inactive) in the assay with KM12; 15.5 µM (inactive) with HOP-62; 21.6 µM (inactive) in the assay with ACHN.
`C/C(=C/CC[C@]1(CO)CC[C@]2(CO)[C@H](CC[C@@H]3[C@@]4(C)CC[C@H](OC5OCC(O)C(O)C5OC5OC(CO)C(O)C(O)C5O)C(C)(C)[C@@H]4CC[C@]32C)[C@H]1O)CO` (some centres undefined): the GI50 with BT-549 was > 100 µM (inactive); in the assay on SK-MEL-5 it was > 100 µM (inactive); in the assay on Malme-3M it was 92.3 µM (inactive); with NCI-H522 it was > 100 µM (inactive); in the assay on CAKI-1 it was > 100 µM (inactive); in the assay on OVCAR-5, > 100 µM (inactive). Also, the GI50 in the assay with SR, in the assay on MDA-N, with MDA-MB-435, with LOX IMVI, in the assay on HL-60 and in the assay with EKVX was > 100 µM (inactive) throughout. In addition, the GI50 with A498, in the assay with NCI-H460, in the assay on HT-29, in the assay on A549, with KM12 and in the assay on HOP-62 was > 100 µM (inactive) in each case. Besides, the GI50 in the assay with ACHN was > 100 µM (inactive).
With `Cc1c(Cl)cccc1/N=N/C(=O)NNc1cccc(Cl)c1C`, the GI50 with BT-549 is 14.1 µM (inactive); in the assay on SK-MEL-5 it was 15.3 µM (inactive); in the assay with Malme-3M, 16.1 µM (inactive); in the assay with NCI-H522, 23.1 µM (inactive); with OVCAR-5, 14.1 µM (inactive); with SR it was 21.3 µM (inactive). Further, the GI50 with MDA-N is 17.2 µM (inactive); with MDA-MB-435 it was 18.2 µM (inactive); in the assay on LOX IMVI, 21.3 µM (inactive); with HL-60, 17.8 µM (inactive); in the assay with A498, 14.4 µM (inactive); in the assay on NCI-H460, 16.6 µM (inactive). For the same compound, the GI50 is 20.4 µM (inactive) in the assay on HT-29; 16.9 µM (inactive) in the assay with A549; 17.3 µM (inactive) in the assay with HCC 2998; 12.8 µM (inactive) with HOP-62; 20.1 µM (inactive) in the assay with ACHN.
For the compound `O=S(=O)(O)c1cc(S(=O)(=O)O)c2c(/N=N/c3ccc(/N=N/c4ccccc4)cc3)c(O)ccc2c1`, the GI50 in the assay on BT-549, in the assay with SK-MEL-5, with Malme-3M, with NCI-H522, in the assay on CAKI-1 and in the assay on OVCAR-5 was > 100 µM (inactive) each time. Besides, the GI50 in the assay with SR was > 100 µM (inactive); in the assay with MDA-N it was > 100 µM (inactive); in the assay with MDA-MB-435 it was > 100 µM (inactive); in the assay on HL-60, > 100 µM (inactive); with EKVX, > 100 µM (inactive); in the assay with A498, 52.1 µM (inactive). The GI50 in the assay with NCI-H460, in the assay on HT-29, with A549, with HCC 2998, with KM12 and in the assay on HOP-62 was > 100 µM (inactive) in each case. Moreover, the GI50 with ACHN is > 100 µM (inactive).
For the compound `CC1(O)CC(=O)c2c(cc3ccc(-c4c5c(c(O)c6c(O)cccc46)C(=O)CC(C)(O)C5)c(O)c3c2O)C1` (centres undefined), the GI50 in the assay on BT-549 was 0.347 µM (active); in the assay with SK-MEL-5 it was 0.187 µM (active); with Malme-3M it was 0.248 µM (active); with NCI-H522, 0.213 µM (active); in the assay with CAKI-1, 0.401 µM (active); with OVCAR-5, 0.611 µM (active). For the same compound, the GI50 was 0.367 µM (active) in the assay on SR; 0.867 µM (active) with MDA-N; 0.279 µM (active) in the assay with MDA-MB-435; 0.817 µM (active) with LOX IMVI; 0.16 µM (active) in the assay on HL-60; 0.562 µM (active) with EKVX. Further, the GI50 in the assay with A498 was 0.465 µM (active); in the assay with NCI-H460 it was 0.16 µM (active); in the assay with HT-29, 0.409 µM (active); with A549, 0.365 µM (active); in the assay with KM12, 0.0278 µM (active); in the assay with HOP-62 it was 0.296 µM (active). The GI50 in the assay on ACHN was 0.125 µM (active).
On to `Clc1cccc(Cl)c1C1SCC2=Nc3ccccc3CN21` (centres undefined), for which the GI50 in the assay with BT-549 is 66.4 µM (inactive); with SK-MEL-5, 15.8 µM (inactive); in the assay on CAKI-1, 60.3 µM (inactive); in the assay with OVCAR-5, 41.5 µM (inactive); with SR it was 34.1 µM (inactive); in the assay on MDA-N, 36.8 µM (inactive). Besides, the GI50 was 27.2 µM (inactive) in the assay on MDA-MB-435; 19.1 µM (inactive) with LOX IMVI; 21.7 µM (inactive) in the assay with HL-60; 23.7 µM (inactive) in the assay with EKVX; 71.8 µM (inactive) in the assay on A498; 19.5 µM (inactive) in the assay with NCI-H460. Moreover, the GI50 in the assay on A549 was 20.5 µM (inactive); in the assay on HCC 2998, 29.6 µM (inactive); in the assay on KM12, 20.8 µM (inactive); with HOP-62 it was 19.5 µM (inactive).
As for `COc1ccc(CCc2nccn2C)cc1OC`, the GI50 in the assay with BT-549, with SK-MEL-5, in the assay on Malme-3M, with CAKI-1, with OVCAR-5 and with SR was > 100 µM (inactive) in each case. In addition, the GI50 in the assay on MDA-N, in the assay on MDA-MB-435, in the assay on LOX IMVI, in the assay on HL-60, with EKVX and in the assay with A498 was > 100 µM (inactive) in each case. Moreover, the GI50 in the assay with NCI-H460, in the assay with HT-29, in the assay with A549, in the assay on HCC 2998, in the assay with HOP-62 and with ACHN was > 100 µM (inactive) in each case.
As to `O=C1c2cccc([N+](=O)[O-])c2C(=O)N1Cc1ccccc1`, the GI50 in the assay on BT-549, in the assay on SK-MEL-5, in the assay on NCI-H522, in the assay with CAKI-1, in the assay on OVCAR-5 and in the assay on SR was > 100 µM (inactive) each time. In addition, the GI50 in the assay on MDA-N, in the assay with MDA-MB-435, in the assay on LOX IMVI, with HL-60, with EKVX and in the assay on A498 was > 100 µM (inactive) each time. Moreover, the GI50 with NCI-H460, in the assay with HT-29, with A549, in the assay with HCC 2998, in the assay on KM12 and in the assay on HOP-62 was > 100 µM (inactive) throughout. Further, in the assay on ACHN, the GI50 was > 100 µM (inactive).
